Key:
Experiment in all cases: Direct target affinity purification (DTAP) from cell lysates
Format in all cases: binding
Details in all cases: compound coupled to Sepharose beads
JNK = JNK (Homo sapiens, UniProt P45983)
Text: (§1) Direct target affinity purification (DTAP) was used to investigate (1) the selectivity of compounds of the invention for TTK, relative to other kinases, and (2) the importance of a specific methyl substituent in providing that selectivity.
(§2) In preparation for DTAP studies, the two compounds depicted above were synthesized with an alkyl-amine linker to allow covalent coupling to epoxy-activated Sepharose 6B beads (GE Healthcare, Piscataway, N.J.). Sepharose beads were swollen and washed with water for 30 min followed by equilibration in coupling buffer (50% dimethylformamide, 50 mM Na2CO3). Beads were pelleted by centrifugation (15 sec at 2000×g) and the supernatant removed by aspiration. An equal volume of coupling buffer containing the linkered test compound was used to resuspend the beads. Compound concentrations in the coupling reaction ranged from 0.1 mM to 12.5 mM. The coupling reactions were incubated at 34° C. for 18 hrs on a rotator mixer. Ethanolamine was added to 1 M for the final 1 hr to quench the coupling reaction. Beads were washed extensively with binding buffer (1 M NaCl, 50 mM Hepes [pH 7.4], 1% Triton X-100, 1 mM EDTA and 1 mM dithiothreitol) to remove residual coupling reagents, and were then stored at 4° C.
(§3) Cellular proteins were prepared by mild sonication in lysis buffer (150 mM NaCl, 50 mM Hepes [pH 7.4], 1% Triton X-100, 1 mM EDTA and 2 mM dithiothrietol containing 1× Halt™ protease and phosphatase inhibitor cocktail [Thermo Fisher Scientific, Rockford, Ill.]). Lysates were centrifuged (20,000×g for 20 min) to remove debris, diluted to a protein concentration of ˜5 mg/ml, divided into aliquots, and stored at −80° C.
(§4) For DTAP reactions, cell lysates (˜0.5 ml per binding reaction) were thawed and the NaCl concentration adjusted to 1 M. Competitor compounds dissolved in DMSO (or a DMSO control) were then added to the lysate and incubated on ice for 5 min. The lysates were centrifuged at 20,000×g for 10 min and the cleared supernatant was transferred to a tube containing 50 μl of coupled beads. The binding reactions were incubated on a rotator mixer at 4° C. for 2 hrs, after which the beads were pelleted by centrifugation and the supernatant removed by aspiration. The beads were washed three times with 20 volumes of binding buffer, 2× with 20 volumes wash buffer (150 mM NaCl, 50 mM Hepes [pH 7.4], 1% Tween 20, 1 mM EDTA, 2 mM dithiothrietol) and finally twice with 10 volumes of 150 mM NaCl, 50 mM Hepes [pH 7.4].
(§5) During the final wash, an aliquot containing 10 μl of beads was transferred to a separate tube and resuspended with 15 μl of 2× SDS/PAGE loading buffer (Invitrogen Corporation, Carlsbad, Calif.) for 5 min at 90° C. The eluted proteins were resolved by electrophoresis on a NuPage 4-12% Bis-Tris Gel (Invitrogen Corporation, Carlsbad, Calif.) and visualized by staining with Ruby Red (Invitrogen Corporation, Carlsbad, Calif.). The remaining beads (40 μl) were processed for analysis by mass spectrometry.

FER = FER (Homo sapiens, UniProt P16591)
Text: as §1, §2, §3, §4, §5

JAK1 = biological target: T1, JAK1 (Homo sapiens, UniProt P23458)
T1 construct: Cellular proteins were prepared by mild sonication in lysis buffer; endogenous in cells
Text: as §1, §2, §3, §4, §5

TTK = biological target: T2, TTK (Homo sapiens, UniProt P33981)
T2 sequence (P33981 1-857): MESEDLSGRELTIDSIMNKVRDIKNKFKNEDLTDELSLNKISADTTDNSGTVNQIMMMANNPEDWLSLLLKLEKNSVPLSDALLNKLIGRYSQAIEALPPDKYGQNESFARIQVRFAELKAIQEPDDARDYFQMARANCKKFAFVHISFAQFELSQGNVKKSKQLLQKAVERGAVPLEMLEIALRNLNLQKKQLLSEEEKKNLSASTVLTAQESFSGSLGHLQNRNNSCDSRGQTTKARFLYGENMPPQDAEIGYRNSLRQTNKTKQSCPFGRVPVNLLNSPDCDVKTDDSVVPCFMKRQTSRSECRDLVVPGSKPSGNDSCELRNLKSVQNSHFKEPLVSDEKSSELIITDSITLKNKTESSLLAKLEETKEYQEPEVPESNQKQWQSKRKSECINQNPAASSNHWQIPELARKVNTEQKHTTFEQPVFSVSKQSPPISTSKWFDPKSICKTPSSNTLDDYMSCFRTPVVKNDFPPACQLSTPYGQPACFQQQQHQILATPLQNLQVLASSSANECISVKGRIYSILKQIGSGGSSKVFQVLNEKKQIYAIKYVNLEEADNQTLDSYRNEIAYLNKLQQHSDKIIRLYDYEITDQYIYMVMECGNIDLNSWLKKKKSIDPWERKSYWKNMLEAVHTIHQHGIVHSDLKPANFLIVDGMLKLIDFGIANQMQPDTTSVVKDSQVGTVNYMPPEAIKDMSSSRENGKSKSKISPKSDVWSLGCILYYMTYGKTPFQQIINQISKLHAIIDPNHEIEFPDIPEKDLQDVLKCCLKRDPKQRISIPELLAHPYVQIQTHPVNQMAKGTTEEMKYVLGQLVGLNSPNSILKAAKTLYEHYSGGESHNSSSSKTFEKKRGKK
Text: as §1, §2, §3, §4, §5

Aurora A = biological target: T3, Aurora A (Homo sapiens, UniProt O14965)
T3 sequence (O14965 1-403): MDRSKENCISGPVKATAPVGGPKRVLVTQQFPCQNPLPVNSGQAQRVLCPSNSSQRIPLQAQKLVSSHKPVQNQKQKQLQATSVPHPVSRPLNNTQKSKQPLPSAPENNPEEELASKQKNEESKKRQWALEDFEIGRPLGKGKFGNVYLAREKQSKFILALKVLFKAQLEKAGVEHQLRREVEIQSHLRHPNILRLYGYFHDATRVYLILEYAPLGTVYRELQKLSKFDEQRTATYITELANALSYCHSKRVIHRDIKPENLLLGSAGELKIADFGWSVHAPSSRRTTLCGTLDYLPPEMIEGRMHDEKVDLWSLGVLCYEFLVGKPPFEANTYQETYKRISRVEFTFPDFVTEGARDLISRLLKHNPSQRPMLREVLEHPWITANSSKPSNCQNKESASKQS
Text: as §1, §2, §3, §4, §5

FER, sequence (P16591 whole entry, species assumed): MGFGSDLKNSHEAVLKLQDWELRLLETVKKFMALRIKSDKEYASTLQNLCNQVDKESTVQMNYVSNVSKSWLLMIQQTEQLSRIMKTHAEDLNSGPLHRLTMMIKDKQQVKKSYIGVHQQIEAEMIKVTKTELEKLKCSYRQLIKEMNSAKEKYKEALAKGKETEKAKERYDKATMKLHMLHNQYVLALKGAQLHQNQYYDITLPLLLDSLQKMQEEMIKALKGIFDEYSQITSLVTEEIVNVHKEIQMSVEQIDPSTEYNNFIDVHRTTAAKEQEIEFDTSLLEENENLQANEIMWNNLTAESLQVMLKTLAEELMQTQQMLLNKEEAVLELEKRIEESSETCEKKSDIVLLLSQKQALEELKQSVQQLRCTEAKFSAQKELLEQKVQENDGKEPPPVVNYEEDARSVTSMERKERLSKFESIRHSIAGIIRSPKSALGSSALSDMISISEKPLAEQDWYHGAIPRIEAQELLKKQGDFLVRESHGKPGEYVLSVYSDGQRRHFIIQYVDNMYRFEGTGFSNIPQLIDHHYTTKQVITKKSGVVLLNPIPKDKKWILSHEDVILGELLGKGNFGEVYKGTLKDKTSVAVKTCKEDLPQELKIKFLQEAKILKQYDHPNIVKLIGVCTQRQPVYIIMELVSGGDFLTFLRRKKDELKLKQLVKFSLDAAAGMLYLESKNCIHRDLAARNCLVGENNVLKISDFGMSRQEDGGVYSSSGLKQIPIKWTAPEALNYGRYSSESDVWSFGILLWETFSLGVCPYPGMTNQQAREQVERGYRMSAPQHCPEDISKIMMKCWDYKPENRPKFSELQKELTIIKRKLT
JNK, sequence (P45983 whole entry): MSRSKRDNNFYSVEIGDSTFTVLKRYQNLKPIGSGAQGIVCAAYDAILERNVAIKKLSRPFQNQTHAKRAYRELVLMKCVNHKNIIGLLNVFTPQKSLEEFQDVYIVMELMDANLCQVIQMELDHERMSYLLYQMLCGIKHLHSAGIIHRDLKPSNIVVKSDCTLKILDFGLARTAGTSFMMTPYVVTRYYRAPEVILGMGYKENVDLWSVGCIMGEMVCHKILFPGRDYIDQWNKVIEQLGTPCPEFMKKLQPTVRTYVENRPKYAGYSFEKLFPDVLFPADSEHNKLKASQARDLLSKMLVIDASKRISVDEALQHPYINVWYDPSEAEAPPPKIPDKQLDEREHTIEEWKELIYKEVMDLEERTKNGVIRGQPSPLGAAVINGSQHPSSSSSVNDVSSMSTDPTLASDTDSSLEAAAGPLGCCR
T1 sequence (P23458 whole entry, species assumed): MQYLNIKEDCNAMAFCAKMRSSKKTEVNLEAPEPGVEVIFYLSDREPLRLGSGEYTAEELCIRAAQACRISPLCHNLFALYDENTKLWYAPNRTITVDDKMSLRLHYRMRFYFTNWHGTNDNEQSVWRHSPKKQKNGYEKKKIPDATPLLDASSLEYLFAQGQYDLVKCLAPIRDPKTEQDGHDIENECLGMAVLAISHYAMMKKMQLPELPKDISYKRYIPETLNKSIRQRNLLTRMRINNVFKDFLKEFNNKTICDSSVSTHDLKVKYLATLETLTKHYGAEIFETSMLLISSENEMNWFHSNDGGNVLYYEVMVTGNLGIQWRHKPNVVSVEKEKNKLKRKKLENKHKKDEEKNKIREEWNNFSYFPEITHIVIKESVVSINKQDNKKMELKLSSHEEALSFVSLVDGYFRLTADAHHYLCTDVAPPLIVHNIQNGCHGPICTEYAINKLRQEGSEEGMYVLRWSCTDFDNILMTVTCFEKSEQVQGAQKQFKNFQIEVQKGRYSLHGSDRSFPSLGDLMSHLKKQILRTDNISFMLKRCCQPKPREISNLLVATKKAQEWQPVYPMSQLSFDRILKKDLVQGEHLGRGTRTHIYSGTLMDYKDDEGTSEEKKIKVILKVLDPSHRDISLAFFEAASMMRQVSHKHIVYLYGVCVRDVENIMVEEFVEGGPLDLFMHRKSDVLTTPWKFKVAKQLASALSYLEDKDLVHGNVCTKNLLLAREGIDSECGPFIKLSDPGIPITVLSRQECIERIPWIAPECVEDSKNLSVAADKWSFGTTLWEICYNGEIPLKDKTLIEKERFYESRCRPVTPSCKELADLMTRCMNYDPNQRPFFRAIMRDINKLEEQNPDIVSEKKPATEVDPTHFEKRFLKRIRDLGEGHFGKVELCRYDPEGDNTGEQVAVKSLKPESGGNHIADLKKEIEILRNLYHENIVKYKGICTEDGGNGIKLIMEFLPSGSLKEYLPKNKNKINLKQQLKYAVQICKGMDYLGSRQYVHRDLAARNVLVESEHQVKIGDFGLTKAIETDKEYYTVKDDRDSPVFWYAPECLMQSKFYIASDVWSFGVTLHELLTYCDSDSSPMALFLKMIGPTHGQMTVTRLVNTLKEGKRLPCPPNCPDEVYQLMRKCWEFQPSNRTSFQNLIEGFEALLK

NCCCOc1ccc(Nc2nc(NC3CCCCC3)c3nc[nH]c3n2)cc1 [N2-[4-(3-aminopropoxy)phenyl]-N-6-cyclohexyl-9H-purine-2,6-diamine]
binding of JNK from cell lysates to bead-coupled compound (JNK): found to bind
binding of FER from cell lysates to bead-coupled compound (FER): found to bind
binding of JAK1 from cell lysates to bead-coupled compound (JAK1): found to bind
binding of TTK from cellular lysates to bead-coupled compound (TTK): high affinity
binding of Aurora A from cell lysates to bead-coupled compound (Aurora A): found to bind

Source: patent US20120122840A1, “COMPOUNDS AND THERAPEUTIC USES THEREOF” (Myrexis, Inc., priority 2009, published 2012)
